Assay results: PMC3103407 (2011)
Changes are numbered by the printed parent chain. In names and notes the source's numbering stands.

T1: Gap1p (Saccharomyces cerevisiae, UniProt P19145, A297V/K16R/K9R)
T1 sequence (P19145 1-602 K9R/K16R/A297V): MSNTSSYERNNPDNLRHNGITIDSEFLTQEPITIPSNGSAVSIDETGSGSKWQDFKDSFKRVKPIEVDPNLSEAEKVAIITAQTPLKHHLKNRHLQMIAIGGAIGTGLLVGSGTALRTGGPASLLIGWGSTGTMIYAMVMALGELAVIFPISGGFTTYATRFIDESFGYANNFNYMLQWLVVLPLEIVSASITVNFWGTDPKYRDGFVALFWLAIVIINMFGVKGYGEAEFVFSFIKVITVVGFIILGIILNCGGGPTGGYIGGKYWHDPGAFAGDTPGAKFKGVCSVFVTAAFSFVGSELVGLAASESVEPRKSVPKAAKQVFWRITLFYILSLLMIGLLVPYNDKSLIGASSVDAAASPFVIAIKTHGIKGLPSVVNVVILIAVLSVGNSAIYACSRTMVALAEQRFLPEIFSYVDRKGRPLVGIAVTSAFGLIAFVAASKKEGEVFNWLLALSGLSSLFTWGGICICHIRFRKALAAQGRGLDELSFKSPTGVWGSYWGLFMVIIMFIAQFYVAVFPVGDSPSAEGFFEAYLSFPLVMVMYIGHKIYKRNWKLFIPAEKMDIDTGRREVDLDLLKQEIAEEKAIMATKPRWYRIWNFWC

T2: Gap1p (Saccharomyces cerevisiae, UniProt P19145, K16R/K9R)
T2 sequence (P19145 1-602 K9R/K16R): T1 sequence (P19145 1-602 K9R/K16R/A297V) with V297A

B1: Gap1p (Saccharomyces cerevisiae S288C; K16R/K9R) (protein)
chain: T1 sequence (P19145 1-602 K9R/K16R/A297V) with V297A
B2: Gap1p (Saccharomyces cerevisiae S288C; A297V/K16R/K9R) (protein)
chain: T1 sequence (P19145 1-602 K9R/K16R/A297V)

Tests used:
Gap1p [1] = molecular target: T1, Gap1p; test: competitive inhibition of […]-glycine uptake in yeast cells; assay type: cell-based
Gap1p [2] = molecular target: T2, Gap1p; test: as above; assay type: cell-based
[3] = substrate: NCC(=O)O; test: cells, lysate or membranes; assay type: cell-based, Saccharomyces cerevisiae; settings: active site (amino acid binding pocket)

Molecule | Ki (Gap1p [1]) [µM] | Ki (Gap1p [2]) [µM] | Km [3] [µM]
NC(=O)NCCC[C@H](N)C(=O)O [citrulline] | ~35.6 | ~36.6 | 
B1 |  |  | 20.0 ± 5.3
B2 |  |  | 12.7 ± 1.12
